Experimental findings from paper PMC7268545, “Development of a QPatch-Automated Electrophysiology Assay for Identifying TMEM16A Small-Molecule Inhibitors” (Assay and Drug Development Technologies, 2020) are described below.

For this assay, the target named is T1, human ANO1 channel (isoform acd) (Homo sapiens, UniProt Q5XXA6).
T1 construct: host or cells: HEK293T
T1 sequence (Q5XXA6 1-986): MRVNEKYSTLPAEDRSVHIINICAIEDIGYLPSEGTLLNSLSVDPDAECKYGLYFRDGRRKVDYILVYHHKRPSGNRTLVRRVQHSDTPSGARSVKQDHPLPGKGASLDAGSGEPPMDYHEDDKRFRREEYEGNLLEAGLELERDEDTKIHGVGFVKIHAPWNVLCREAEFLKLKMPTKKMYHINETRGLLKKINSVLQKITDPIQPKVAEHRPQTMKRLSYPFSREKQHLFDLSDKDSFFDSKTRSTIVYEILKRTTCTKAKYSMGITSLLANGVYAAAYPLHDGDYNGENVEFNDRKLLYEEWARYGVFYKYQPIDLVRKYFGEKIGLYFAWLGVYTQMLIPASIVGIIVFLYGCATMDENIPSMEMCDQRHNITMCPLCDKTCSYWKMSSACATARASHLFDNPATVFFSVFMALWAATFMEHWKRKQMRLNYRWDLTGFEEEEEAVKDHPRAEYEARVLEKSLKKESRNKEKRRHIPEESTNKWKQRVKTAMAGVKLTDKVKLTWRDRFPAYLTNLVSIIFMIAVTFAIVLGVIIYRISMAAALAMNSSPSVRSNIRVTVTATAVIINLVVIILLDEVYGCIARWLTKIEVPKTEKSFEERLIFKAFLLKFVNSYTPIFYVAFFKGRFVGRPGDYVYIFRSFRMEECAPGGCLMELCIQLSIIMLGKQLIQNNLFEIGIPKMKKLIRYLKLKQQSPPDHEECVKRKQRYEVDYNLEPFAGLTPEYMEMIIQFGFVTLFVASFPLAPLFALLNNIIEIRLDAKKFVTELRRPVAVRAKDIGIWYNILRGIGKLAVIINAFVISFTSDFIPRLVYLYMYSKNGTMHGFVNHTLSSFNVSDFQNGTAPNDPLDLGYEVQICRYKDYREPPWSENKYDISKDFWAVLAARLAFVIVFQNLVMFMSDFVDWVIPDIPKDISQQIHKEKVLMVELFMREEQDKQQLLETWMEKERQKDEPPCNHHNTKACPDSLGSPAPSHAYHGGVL
As to the kind of experiment: QPatch-48 automated whole-cell electrophysiology, cumulative five-concentration single-addition protocol. It is filed as cell-based. How it is done:
HEK293T cells stably expressing the human ANO1 channel (isoform acd) were obtained from Scottish Biomedical. Cells were cultured in Sigma Minimum Essential Media containing 10% heat-inactivated fetal bovine serum, 1% penicillin/streptomycin, 1% glutamine, and […] geneticin. Cells were maintained in a 37°C, 5% CO2 environment. Cells were passaged every 3 days after they had reached ∼70% confluency and were not allowed to reach a density greater than 1–2 × 10^5 cells/cm^2 during routine culture. When subculturing, cells were rinsed once with room temperature 1 × phosphate-buffered saline (PBS; Ca^2+/Mg^2+ free), lifted with TrypLE Express, resuspended in prewarmed growth media, and counted using a hemocytometer. Cells were then plated in T150 flasks at a density of 2.9 × 10^4 cells/cm^2 to be either used in the assay or subcultured 72 h later.
On the day of the experiment, cells plated at a density of 2.9 × 10^4 cells/cm^2 72 h prior should be ∼70%–80% confluent. After cells were rinsed with prewarmed 1 × PBS (Ca^2+/Mg^2+ free), 3 mL of room temperature Detachin solution (Genlantis) was added to the flask and tilted gently two to three times to cover all the cells. Approximately 2 mL of Detachin was aspirated from the flask, leaving 1 mL on the cells, and then placed in the 37°C incubator for 5 min. Once cells had rounded up, the cells were dislodged by tapping the flask gently. The cells were then resuspended in 5 mL of warm serum-free media (EX-CELL ACF CHO Medium; Sigma; supplemented with 4 mM L-glutamine and 10 mM HEPES). A glass Pasteur pipette with a rubber bulb was then used to gently dissociate the cells from one another. Detachin will often leave cells as doublets or clumps, conditions that will disrupt seal formation on the QPatch. The cells were triturated ∼30 times and then, still using the Pasteur pipette, transferred into the QPatch Cell Hotel. This ensures that cells detach from one another leaving a suspension of single cells. A QStirrer was added to the Cell Hotel and the cell suspension was immediately placed on the QPatch device. Cells were utilized within 15 min.
Compounds were reconstituted in dimethyl sulfoxide (DMSO; Sigma) as 10 mM stock solutions. An automated dilution machine set up the microtiter plate (MTP ) by making 1:5 dilutions from a starting concentration of 30 μM. The concentration of DMSO was equal for all concentrations tested. Each MTP contained one row of a negative control (DMSO) and a positive control (benzbromarone). A total of eight compounds were run at a time. All compounds tested were produced in-house.
Whole-cell patch-clamp experiments were performed on a QPatch-48-automated electrophysiology platform (Sophion Biosciences) using the 48-channel, single-hole QPlate (resistance 2.0 ± 0.4 MΩ). The external buffer (in mM) was 140 NaCl, 4 KCl, 2 CaCl2, 1 MgCl2, 10 HEPES, 10 glucose, pH 7.4 (osmolarity = 300), and the internal buffer (in mM) was 110 CsCl, 20 TEA-Cl, 5.374 CaCl2, 1.75 MgCl2, 10 EGTA, 10 HEPES, 4 Na2ATP, pH 7.2 (osmolarity = 310). Cell positioning was set to a 5-s wait time with a positioning pressure of −60 mbar and a positioning time-out of 60 s. Resistance was set to increase 750% to ensure the success of positioning. To obtain a seal, pressure was increased to −70 mbar with an allowed pressure of −130 to −20 mbar and a holding pressure of −20 mbar. The holding potential was set to −70 mV and a 240-s time-out was set. The minimum seal resistance was set to 0.02 GΩ. To go whole cell, five 1-s suction pulses were applied starting at −180 mbar and increasing with −40 mbar increments with a pulse period of 10 s. Suction ramp and voltage zap protocols were kept standard, according to the default HEK cell settings. […] The suction ramp order of use was set to 2 with a ramp amplitude of −450 mbar and a ramp slope of 100 ms/mbar.
Once established in whole-cell configuration, cells are clamped to a holding potential (Vhold) of 0 mV.
In general terms: In patch-clamp work, channel activity is measured electrically.

Where [1] appears, read: half plate (24-well format), cumulative single-addition, n = 5, read-out: average IC50 (mean ± SD).
Where [2] appears, read: independent experiment 3, read-out: IC50s for independent experiments 3.
Setting [3] is: independent experiment 4, read-out: IC50s for independent experiments 4.
Setting [4] is: independent experiment 5, read-out: IC50s for independent experiments 5.

Like-named read-outs stand apart in the source and are kept apart here.

As for `CCc1oc2ccccc2c1C(=O)c1cc(Br)c(O)c(Br)c1` [Benzbromarone], the IC50 was 3.45 µM (IC50s for independent experiments 1, independent experiment 1, block at +100 mV, 250 nM internal free-calcium); 1.51 µM (IC50s for independent experiments 2, independent experiment 2); 0.73 µM (full 48-well plate format (with rundown), n = 1, read-out: IC50, full 48-well plate format); 2.54 ± 0.94 µM under setting [1]; 1.31 µM under setting [2]; 2.3 µM under setting [3]. Further, the IC50 under setting [4] stood at 3.18 µM.

On to `O=C(Nc1ccc([N+](=O)[O-])cc1Cl)c1cc(Cl)ccc1O` [Niclosamide], for which the IC50 is about 1 µM (QPatch, 1-min incubations, read-out: concentration inhibiting 50% of channel current); 1.6 ± 0.39 µM under setting [1]; 1.62 µM (independent experiment 1, block at +100 mV, 250 nM internal free-calcium, read-out: IC50s for independent experiments 1); 1.43 µM (independent experiment 2, read-out: IC50s for independent experiments 2); 1.05 µM under setting [2]; 2.09 µM under setting [3]. In addition, under setting [4], the IC50 was 1.81 µM.
